Like-named read-outs stand apart in the source and are kept apart here.
Assays:
Male HWT mice = type: in vivo; settings: for Kidneys mean weight ± standard error: 2 weeks
Method: (§1) Male HWT mice, 12 weeks old, were treated daily for 2 weeks, with 5 animals per treatment group. The test compounds were the compound of Examples 1 and 4 (as representative of compounds of the invention having the pregenolone-like and progesterone-like skeletons respectively). Ketoconazole was also tested at three different doses. The test compounds were made up in 5% benzyl alcohol, 95% safflower oil, and were given i.p.. In addition to an untreated control group of animals, there was also a solvent control group which received the same volume of liquid as the test group (5 ml/kg) but no test compound. All animals were sacrificed 24 hours after the last injection. Blood was collected by cardiac puncture into heparinized tubes, and the plasma used for RIA (radio immunoassay) of testosterone and luteinising hormone. The following organs were removed and weighed: adrenals, prostate, seminal vesicles, testes, kidneys. There was no significant body weight loss in any group of mice during the experiments.

[1] = tested on: testosterone and luteinising hormone; test: In vivo endocrine test in mice (plasma testosterone and LH by RIA); parameters: species or system mice (male HWT); settings: 2 weeks
Method: Male HWT mice, 12 weeks old, were treated daily for 2 weeks, with 5 animals per treatment group. […] The test compounds were made up in 5% benzyl alcohol, 95% safflower oil, and were given i.p.. In addition to an untreated control group of animals, there was also a solvent control group which received the same volume of liquid as the test group (5 ml/kg) but no test compound. All animals were sacrificed 24 hours after the last injection. Blood was collected by cardiac puncture into heparinized tubes, and the plasma used for RIA (radio immunoassay) of testosterone and luteinising hormone.

[2] = parameters: species or system mice (male HWT); settings: mouse, in vivo, ip
Method: as §1
In Ketoconazole-treated animals, adhesions were found in 2/5,2/5,4/5 of the low/middle/top dose groups. […] The livers were brown in the middle/top dose groups.

17α-Hydroxylase = molecular target: T1, 17α-Hydroxylase (Homo sapiens, UniProt P05093); test: Determination of 17α-hydroxylase inhibition (human testicular microsomes, 3H-progesterone substrate); type: biochemical; settings: relative to 3-pyridyl compound
T1 construct: A microsomal preparation was prepared essentially as described by S. E. Barrie et al; from tissue; host or cells: human testis microsomes
T1 sequence (P05093 1-508): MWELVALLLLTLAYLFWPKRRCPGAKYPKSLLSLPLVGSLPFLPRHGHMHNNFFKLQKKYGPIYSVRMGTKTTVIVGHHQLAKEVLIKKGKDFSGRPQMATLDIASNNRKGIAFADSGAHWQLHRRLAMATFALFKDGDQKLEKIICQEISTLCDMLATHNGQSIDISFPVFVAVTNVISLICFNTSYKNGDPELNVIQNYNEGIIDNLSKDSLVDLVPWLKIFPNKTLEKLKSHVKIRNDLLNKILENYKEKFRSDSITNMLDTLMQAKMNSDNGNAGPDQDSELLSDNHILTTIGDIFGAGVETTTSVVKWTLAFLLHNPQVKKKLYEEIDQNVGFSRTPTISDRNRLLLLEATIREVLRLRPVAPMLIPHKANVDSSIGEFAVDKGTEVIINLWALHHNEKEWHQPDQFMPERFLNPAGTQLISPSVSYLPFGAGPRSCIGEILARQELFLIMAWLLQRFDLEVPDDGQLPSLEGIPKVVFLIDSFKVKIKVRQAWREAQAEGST
Method: (§2) Human testes were obtained from previously untreated patients undergoing orchidectomy for prostatic cancer. The testes were decapsulated and stored in liquid nitrogen until use. […] The material was then thawed, finely chopped, and homogenised in 0.25M sucrose (5 ml/g wet weight) using a Potter homogeniser. The homogenate was centrifuged at 12000 g for 30 min, and then the microsomes were pelleted by spinning the supernatant at 100,000 g for 1 hr. The pellet was washed by being resuspended in 0.25M sucrose and repelleted. The microsomal pellet was then resuspended in 50 mM sodium phosphate pH 7.4/ glycerol (3/1 v/v) and stored in aliquots in liquid nitrogen.
(§3) The basic assay mixture was EDTA (0.2 mM), dithiothreitol (DTT; 0.1 mM), NADPH (0.25 mM), glucose 6-phosphate dehydrogenase (G6PDH; 6.25 μg/ml), MgCl2 (1 mM), glucose 6-phosphate (G6P; 10 mM) and the substrate, ^3 H-progesterone (3 μM) in sodium phosphate (50 mm), pH 7.4. The compounds under test were dissolved in 50% DMSO and the final concentrations of ethanol and DMSO were 1% each. The assay reaction was carried out for 1 hour and was terminated by the addition of 2 vols. of methanol-acetonitrile (2:1) containing approx. 100 μM unlabelled progesterone, 17α-hydroxyprogesterone, androstenedione, testosterone, and 16α-hydroxyprogesterone.
The separation of the steroids by HPLC was carried out using an "Uptight" guard column packed with 40-63 μm Nucleosil C18 and a 10 cm main column packed with 5 μm Nucleosil C18 and 60% methanol as eluant. The radioactivity in the peaks of interest was monitored on-line by mixing the HPLC effluent 1:1 with Ecoscint A (National Diagnostics) scintillation fluid, containing 25% acetonitrile, and passing the mixture through a Berthold LB506C radiochemical monitor. The hydroxylase activity was measured as the production of 17α-hydroxyprogesterone, androstenedione and testosterone.
The enzyme activity was measured in the presence of at least 4 concentrations of each compound. […]

C17-C20 lyase = molecular target: T2, C17-C20 lyase (Homo sapiens, UniProt P05093); test: Determination of C17-C20 lyase inhibition (human testicular microsomes, 3H-17α-hydroxyprogesterone substrate); type: biochemical; settings: for concentration required to achieve 50% inhibition of lyase, compared with the 3-pyridyl (in words): relative to 3-pyridyl compound
T2 construct: A microsomal preparation was prepared essentially as described by S. E. Barrie et al; from tissue; host or cells: human testis microsomes
T2 sequence (P05093 1-508): T1 sequence (P05093 1-508)
Method: as §2, §3
The mixture was the same as described above for the 17αt-hydroxylase except that the substrate was ^3 H-17α-hydroxy- progesterone.
The HPLC separation used for the lyase involved a mini-re-column "Uptight Guard Column" packed with PELL-ODS (pellicular octadecyl silica) and a 10 cm. main column "Apex C18" column packed with 5 μ, APEX-CAT silica.
The eluant was 38:12:50 methanol:acetonitrile:water flowing at 1 ml/min. The effluent was mixed 1:1 with Ecoscint A containing 5% methanol and 5% acetonitrile and the radioactivity was measured directly by a Berthold LB506C radiochemical detector. The lyase activity was measured as the production of androstenedione and testosterone.
The enzyme activity was measured in the presence of at least 4 concentrations of each compound. […] Data for all the other compounds were fitted by non-linear regression to the median effect equation of Chou, J. Theoret.

aromatase = molecular target: T3, aromatase (Homo sapiens, UniProt P11511); type: biochemical; settings: human placental microsomes used; read-out: Michaelis constant Km
T3 construct: using human placental microsomes; from tissue; host or cells: human placental microsomes
T3 sequence (P11511 1-503): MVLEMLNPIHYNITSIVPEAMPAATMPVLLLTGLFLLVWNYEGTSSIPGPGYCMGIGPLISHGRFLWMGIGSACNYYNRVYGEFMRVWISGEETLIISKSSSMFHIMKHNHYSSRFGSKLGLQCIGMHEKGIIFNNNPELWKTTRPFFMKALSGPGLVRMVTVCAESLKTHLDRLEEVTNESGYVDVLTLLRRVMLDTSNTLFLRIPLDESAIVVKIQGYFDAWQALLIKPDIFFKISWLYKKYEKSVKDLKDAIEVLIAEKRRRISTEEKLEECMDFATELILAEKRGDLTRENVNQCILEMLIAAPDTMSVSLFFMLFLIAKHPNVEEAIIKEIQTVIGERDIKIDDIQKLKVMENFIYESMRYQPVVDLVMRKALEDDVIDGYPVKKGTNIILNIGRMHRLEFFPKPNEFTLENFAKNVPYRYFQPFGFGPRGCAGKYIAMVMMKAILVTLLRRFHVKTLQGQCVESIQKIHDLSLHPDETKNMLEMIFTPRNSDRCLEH
Method: Aromatase activity was determined by the method of A. B. Foster et all., J. Med. Chem. 26, 50-54 (1983), using human placental microsomes.

## CC(=O)O[C@H]1CC[C@@]2(C)C(=CC[C@@H]3[C@@H]2CC[C@]2(C)C(c4cccnc4)=CC[C@@H]32)C1 [Example 1, 3β-acetoxy-17-(3-pyridyl)androsta-5,16-diene]
Male HWT mice; 0.02 mmol/kg/day i.p.
  Kidneys mean weight ± standard error: 604 ± 24 mg
Male HWT mice; 0.1 mmol/kg/day i.p.
  Kidneys mean weight ± standard error: 500 ± 8 mg
Male HWT mice; 0.5 mmol/kg/day i.p.
  Kidneys mean weight ± standard error: 449 ± 12 mg
[1]; 0.02 mmol/kg/day i.p.
  Testosterone (mean ± standard error): 2.7 ± 0.5 nM
[1]; 0.1 mmol/kg/day i.p.
  Testosterone (mean ± standard error): 0.2 ± 0.1 nM
[1]; 0.5 mmol/kg/day i.p.
  Testosterone (mean ± standard error): 0.1 ± 0.0 nM
[2]
  post mortem examination: appearance of organs: all organs looked normal
  post mortem examination: deposits: oil/white deposits i.p.

## C[C@]12CC[C@H](O)CC1=CC[C@@H]1[C@@H]2CC[C@]2(C)C(c3ccccn3)=CC[C@@H]12 [Example 2-Pyridyl]
17α-Hydroxylase
  concentration required to achieve 50% inhibition of hydroxylase, compared with the 3-pyridyl (in words): far greater
C17-C20 lyase
  concentration required to achieve 50% inhibition of lyase, compared with the 3-pyridyl (in words): far greater

## C[C@]12CC[C@H](O)CC1=CC[C@@H]1[C@@H]2CC[C@]2(C)C(Cc3ccccn3)=CC[C@@H]12 [Example 2-picolyl]
17α-Hydroxylase
  concentration required to achieve 50% inhibition of hydroxylase, compared with the 3-pyridyl (in words): far greater
C17-C20 lyase
  concentration required to achieve 50% inhibition of lyase, compared with the 3-pyridyl (in words): far greater

## C[C@]12CCC(=O)C=C1CC[C@@H]1[C@@H]2CC[C@]2(C)C(c3cccnc3)=CC[C@@H]12 [Example 4, 17-(3-Pyridyl)androsta-4,16-dien-3-one]
[2]
  post mortem examination: appearance of organs: all organs looked normal
  post mortem examination: deposits: white deposits throughout the abdomen

## C[C@]12CC[C@H](O)CC1=CC[C@@H]1[C@@H]2CC[C@]2(C)C(c3ccncc3)=CC[C@@H]12 [Example 4-pyridyl]
17α-Hydroxylase
  concentration required to achieve 50% inhibition of hydroxylase, compared with the 3-pyridyl (in words): far greater
C17-C20 lyase
  concentration required to achieve 50% inhibition of lyase, compared with the 3-pyridyl (in words): far greater

## C[C@]12CCC(=O)C=C1[C@@H](F)C[C@@H]1[C@@H]2CC[C@]2(C)C(c3cccnc3)=CC[C@@H]12 [Example 12, 6α-Fluoro-17-(3-pyridyl)androsta-4,16-dien-3-one]
C17-C20 lyase; Table 2, approx. 4 nM enzyme, listed as Ex. 12
  IC50: 2.2 nM

## CC(=O)N1CCN(c2ccc(OCC3COC(Cn4ccnc4)(c4ccc(Cl)cc4Cl)O3)cc2)CC1 (centres unmarked) [Ketoconazole]
Male HWT mice; mouse, in vivo
  effect on adrenal weight (in words): increase in adrenal weight
[2]
  post mortem examination: gut and peritoneal wall: seemed to be stuck to the seminal vesicles

## [3H][C@@H]1CC(=O)C=C2CC[C@@H]3[C@H](CC[C@]4(C)C(=O)CC[C@@H]34)[C@]21C [[1β-^3 H]androstenedione]
aromatase
  Km: 39 nM
